Experimental data: article PMC10778980, “Profiling Novel Quinuclidine-Based Derivatives as Potential Anticholinesterase Drugs: Enzyme Inhibition and Effects on Cell Viability” (International Journal of Molecular Sciences, 2023)
Entries after “also recorded” stand apart in the source; their conditions may differ. Where two headings read alike, the source gives them in different places.

Assays:
[1] = target: T1, human AChE (Homo sapiens, UniProt P22303); experiment: Reversible inhibition of AChE (Ellman's procedure, Hunter–Downs evaluation); type: biochemical; settings: for Ki: Ki ± standard error, 0.1, 0.2, 0.35 and 0.5 mM substrate ATCh, 25 °C, pH 7.4; for Ki (AChE)/Ki (BChE): selectivity ratio
T1 construct: The sources of human AChE and BChE were native erythrocytes and plasma, respectively; from tissue; host or cells: human erythrocytes from venous blood of a healthy volunteer
T1 sequence (P22303 32-617 isoform P22303-2 limits assumed): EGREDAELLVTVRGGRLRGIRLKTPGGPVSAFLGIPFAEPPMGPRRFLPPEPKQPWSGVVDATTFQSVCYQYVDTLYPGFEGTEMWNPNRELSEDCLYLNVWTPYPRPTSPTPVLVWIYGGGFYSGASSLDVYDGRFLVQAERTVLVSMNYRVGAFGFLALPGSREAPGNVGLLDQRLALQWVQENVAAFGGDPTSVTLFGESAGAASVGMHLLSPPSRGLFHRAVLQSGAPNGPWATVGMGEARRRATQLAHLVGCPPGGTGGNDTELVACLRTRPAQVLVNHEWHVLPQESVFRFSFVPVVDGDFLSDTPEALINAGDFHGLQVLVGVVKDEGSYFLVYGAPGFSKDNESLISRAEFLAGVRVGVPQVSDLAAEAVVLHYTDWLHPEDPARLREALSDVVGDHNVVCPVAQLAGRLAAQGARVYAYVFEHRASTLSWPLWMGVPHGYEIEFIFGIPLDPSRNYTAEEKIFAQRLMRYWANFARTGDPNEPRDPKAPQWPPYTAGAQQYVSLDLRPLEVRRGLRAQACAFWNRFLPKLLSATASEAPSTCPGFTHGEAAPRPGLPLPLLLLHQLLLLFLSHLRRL
From the text: (§1) Cholinesterase substrate acetylthiocholine (ATCh) and the thiol reagent 5,5′-dithiobis(2-nitrobenzoic acid) (DTNB) for the enzyme activity measurement were purchased from Sigma-Aldrich (St. Louis, MO, USA). The sources of human AChE and BChE were native erythrocytes and plasma, respectively, obtained from the blood of a healthy volunteer and in accordance with the approval of the Ethics Committee of the Institute for Medical Research and Occupational Health (approval number: 100-21/23-6). Erythrocytes and plasma were isolated from the whole blood and prepared according to a previously published procedure. Namely, venous blood was collected into a heparinized tube and centrifuged (at 4 °C, 20 min on 2500 rpm, Eppendorf centrifuge 5702R) to separate plasma from the erythrocytes. Plasma was removed and used as a source of BChE, while erythrocytes were washed twice with the 0.1 M sodium phosphate buffer, pH 7.4, in a volume corresponding to the initial volume of the whole blood. Both plasma and erythrocytes were frozen at −20 °C until use. Quinuclidine compounds were dissolved in dH2O as 10 or 100 mM; exceptionally, 3-hydroxyimino compounds with longer chains (C12−C16) were dissolved in DMSO as 100 mM solutions. Stock solutions were kept at 4 °C until use. Further dilutions were made in distilled water.
(§2) The reversible inhibition experiments followed a previously published procedure. Namely, the enzyme activity was measured in the presence of a wide range of quinuclidine compound concentrations and in the substrate range from 0.1 to 0.5 mM to confirm the type of compound binding. The activity was assayed following the Ellman’s procedure, with the modification in the wavelength used for detection of the TNB anion in the case of AChE activity measurement due to the interference of the hemoglobin, and according to Worek et al.. The assay was performed in 96-well plates on an Infinite M200PRO plate reader (Tecan Austria GmbH, Salzburg, Austria) at 25 °C. Each concentration was tested in triplicate or quadruplicate on each plate. The inhibition mixture contained 0.1 M sodium phosphate buffer, pH 7.4, enzyme (AChE or BChE), quinuclidine compound (0.2–400 μM final), DTNB (0.3 mM final), and ATCh (from 0.1 to 0.5 mM final) to start the reaction. The increase in absorbance was read at 436 nm for AChE and at 412 nm for BChE. The measured activity in the presence of compounds was corrected for the non-enzymatic hydrolysis of substrate ATCh, if detected. The reversible enzyme–quinuclidine complex dissociation constants (the inhibition constants) Ki were evaluated from the effect of the substrate concentration on the degree of inhibition according to the Hunter–Downs equation as described previously, taking into account only quinuclidine concentrations where 20–80% inhibition of the activity was observed.

[2] = target: T2, human BChE (Homo sapiens, UniProt P06276); experiment: biochemical
T2 construct: Plasma was removed and used as a source of BChE; from tissue; host or cells: human blood plasma from a healthy volunteer
T2 sequence (P06276 29-602): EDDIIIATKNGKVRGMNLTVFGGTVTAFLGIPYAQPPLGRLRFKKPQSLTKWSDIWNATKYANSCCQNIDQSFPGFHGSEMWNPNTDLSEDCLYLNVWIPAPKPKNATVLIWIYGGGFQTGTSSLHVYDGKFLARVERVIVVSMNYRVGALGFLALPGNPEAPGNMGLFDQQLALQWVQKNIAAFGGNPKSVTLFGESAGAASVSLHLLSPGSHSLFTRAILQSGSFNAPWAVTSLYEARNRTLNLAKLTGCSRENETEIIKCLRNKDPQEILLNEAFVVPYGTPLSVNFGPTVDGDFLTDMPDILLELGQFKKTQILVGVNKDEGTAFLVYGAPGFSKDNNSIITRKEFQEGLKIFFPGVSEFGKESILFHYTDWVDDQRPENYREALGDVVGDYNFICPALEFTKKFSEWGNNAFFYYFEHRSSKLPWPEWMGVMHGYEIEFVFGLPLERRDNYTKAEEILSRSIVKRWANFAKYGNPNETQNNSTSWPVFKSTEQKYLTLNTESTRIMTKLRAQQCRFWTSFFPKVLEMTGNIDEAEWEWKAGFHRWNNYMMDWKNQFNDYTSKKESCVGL
From the text: as §1, §2

[3] = test system: SH-SY5Y cells; experiment: Cytotoxicity assay (MTS) on SH-SY5Y; type: cell-based; settings: Homo sapiens
Experimental: (§3) SH-SY5Y cells were grown in DMEM F12 (Sigma-Aldrich, St. Louis, MO, USA) supplemented with 15% (v/v) fetal bovine serum (FBS), 2 mM glutamine, and 1% (v/v) non-essential amino acids (NEAA). HepG2 cells were grown in EMEM supplemented with 10% (v/v) FBS, 2 mM glutamine, and 1% (v/v) non-essential amino acids NEAA. All media and supplements were purchased from Sigma-Aldrich, Steinheim, Germany.
(§4) The procedure followed a previously described protocol.

[4] = test system: HepG2 cells; experiment: Cytotoxicity assay (MTS) on HepG2; type: cell-based; settings: Homo sapiens
Experimental: as §3, §4

[5] = test system: SH-SY5Y cells; experiment: Cell membrane integrity (LDH release) on SH-SY5Y; type: cell-based, human; settings: 4 h exposure, 12.5–200 µM
Experimental: (§5) Human neuroblastoma SH-SY5Y (ECACC 94030304) and human hepatocyte carcinoma HepG2 (ECACC 85011430) were used to evaluate in vitro dose- and time-dependent different cell effects. The SH-SY5Y cell line was selected as it represents a well-established model for studying neuronal cells, while HepG2 hepatocytes represent a liver model as a major organ participating in the metabolism of diverse compounds [31, 61, 62]. SH-SY5Y cells were grown in DMEM F12 (Sigma-Aldrich, St. Louis, MO, USA) supplemented with 15% (v/v) fetal bovine serum (FBS), 2 mM glutamine, and 1% (v/v) non-essential amino acids (NEAA). HepG2 cells were grown in EMEM supplemented with 10% (v/v) FBS, 2 mM glutamine, and 1% (v/v) non-essential amino acids NEAA. All media and supplements were purchased from Sigma-Aldrich, Steinheim, Germany.
(§6) Cell membrane integrity was determined after 4 h exposure to derivatives 3–5 and 10–12 by measuring the release of the intracellular lactate dehydrogenase (LDH), and the procedure followed a previously described protocol using The CytoTox-ONE™ Homogeneous Membrane Integrity Assay (Promega, Madison, WI, USA). Triton X-100 at a final concentration of 0.18% (v/v) (stock of 9% in water; Sigma-Aldrich, Steinheim, Germany) was used as a positive control to determine the maximal LDH release. Data were taken from at least two independent experiments (each treatment performed in duplicate) and plotted as a percentage of LDH release compared to the determined maximal LDH release, according to the manufacturer’s calculation protocol.

[6] = test system: HepG2 cells; experiment: Cell membrane integrity (LDH release) on HepG2; type: cell-based, human; settings: HepG2, 4 h exposure, 12.5–200 µM
Experimental: as §5, §6

[7] = test system: SH-SY5Y cells; experiment: Mitochondrial membrane potential (TMRE assay) on SH-SY5Y; type: cell-based, human; settings: 4 h exposure, LOAEL concentrations
Experimental: as §5
(§7) Mitochondrial membrane potential (ΔΨm) was determined using a cell-permeable, potential-sensitive cationic dye, tetramethylrhodamine ethyl ester perchlorate (TMRE, Cell Signaling Technology Europe, Leiden, The Netherlands). Cells were exposed for 4 h to derivatives 3–5 and 10–12. The procedure followed a previously described protocol. A concentration of 50 µM carbonyl cyanide 3-chlorophenylhydrazone (CCCP, Cell Signaling Technology Europe, Leiden, The Netherlands) was used as a positive control. Data were evaluated from at least three independent experiments (performed in duplicate) and presented as a normalized signal to the untreated control, according to the manufacturer’s calculation protocol.

[8] = test system: HepG2 cells; experiment: Mitochondrial membrane potential (TMRE assay) on HepG2; type: cell-based, human; settings: HepG2, 4 h exposure, LOAEL concentrations
Experimental: as §5, §7

[9] = Ki ± standard error, 0.1, 0.2, 0.35 and 0.5 mM substrate ATCh, 25 °C, pH 7.4, read-out: Ki BChE
[10] = 4 h exposure, read-out: IC50 ± SE SH-SY5Y 4 h
[11] = 24 h exposure, read-out: IC50 ± SE SH-SY5Y 24 h
[12] = read-out: IC50 ± SE SH-SY5Y 1 h, 1 h exposure
[13] = HepG2, read-out: IC50 ± SE HepG2 1 h, 1 h exposure
[14] = HepG2, 4 h exposure, read-out: IC50 ± SE HepG2 4 h
[15] = HepG2, 24 h exposure, read-out: IC50 ± SE HepG2 24 h

| Compound | Ki [1] | Ki (AChE)/Ki (BChE) [1] | Ki [2, 9] | IC50 [3, 10] | IC50 [3, 11] | IC50 [3, 12] | IC50 [4, 13] | IC50 [4, 14] | IC50 [4, 15] | LDH release [5] | LDH release [6] | Mitochondrial membrane potential (ΔΨm) [7] | Mitochondrial membrane potential (ΔΨm) [8] | Ki [2] | times less efficient than donepezil ([1]; AChE Ki compared to donepezil) |
| --- | --- | --- | --- | --- | --- | --- | --- | --- | --- | --- | --- | --- | --- | --- | --- |
| CCCCCCCC[N+]12CCC(CC1)C(O)C2 (stereo not shown) [Compound 1] | 156 ± 26.1 µM | 1.8 | 85.1 ± 22.1 µM | ≥ 800 µM | ≥ 800 µM | ≥ 800 µM | ≥ 800 µM | ≥ 800 µM | ≥ 800 µM | – | – | – | – | – | – |
| CCCCCCCCCC[N+]12CCC(CC1)C(O)C2 (stereo not shown) [Compound 2] | 63.8 ± 5.1 µM | 5.4 | 11.8 ± 1.1 µM | ≥ 800 µM | ≥ 800 µM | ≥ 800 µM | ≥ 800 µM | ≥ 800 µM | ≥ 537 µM | – | – | – | – | – | – |
| CCCCCCCCCCCC[N+]12CCC(CC1)C(O)C2 (stereo not shown) [Compound 3] | 13.2 ± 0.6 µM | 1.5 | 9 ± 0.8 µM | 74 ± 1 µM | 56 ± 1 µM | 145 ± 1 µM | 135 ± 1 µM | 81 ± 1 µM | 66 ± 1 µM | significant LDH release | strongest effect; also recorded: significant LDH release | decrease in the mitochondrial membrane potential | decrease in the mitochondrial membrane potential | – | – |
| CCCCCCCCCCCCCC[N+]12CCC(CC1)C(O)C2 (stereo not shown) [Compound 4] | 4.2 ± 0.5 µM | 0.5 | 7.9 ± 0.7 µM | 9 ± 1 µM | 7 ± 1 µM | 16 ± 1 µM | 35 ± 1 µM | 32 ± 1 µM | 43 ± 1 µM | significant LDH release | strongest effect; also recorded: significant LDH release | decrease in the mitochondrial membrane potential | decrease in the mitochondrial membrane potential | – | – |
| CCCCCCCCCCCCCCCC[N+]12CCC(CC1)C(O)C2 (stereo not shown) [Compound 5] | 9 ± 1.3 µM | 0.3 | 26.1 ± 2.4 µM | 8 ± 1 µM | 7 ± 1 µM | 11 ± 1 µM | 46 ± 1 µM | 26 ± 1 µM | 28 ± 1 µM | significant LDH release | strongest effect; also recorded: significant LDH release | decrease in the mitochondrial membrane potential | strongest effect; also recorded: decrease in the mitochondrial membrane potential | – | – |
| OC1C[N+]2(CCCCCCCC[N+]34CCC(CC3)C(O)C4)CCC1CC2 (stereo not shown) [Compound 6, 1,1′-(octano)bis(3-hydroxyquinuclidinium bromide)] | 24 ± 1.1 µM | 1.9 | 12.9 ± 1 µM | ≥ 800 µM | ≥ 800 µM | ≥ 800 µM | ≥ 800 µM | ≥ 800 µM | ≥ 800 µM | – | – | – | – | – | – |
| OC1C[N+]2(CCCCCCCCCC[N+]34CCC(CC3)C(O)C4)CCC1CC2 (stereo not shown) [Compound 7, 1,1’-(decano)bis(3-hydroxyquinuclidinium bromide)] | 0.52 ± 0.05 µM | 0.3 | 1.6 ± 0.2 µM | ≥ 800 µM | ≥ 800 µM | ≥ 800 µM | ≥ 800 µM | ≥ 800 µM | ≥ 800 µM | – | – | – | – | – | – |
| CCCCCCCC[N+]12CCC(CC1)C(=NO)C2.[Br-] [Compound 8, 1-octyl-3-hydroxyiminoquinuclidinium bromide] | 82.7 ± 3.5 µM | 2.2 | – | ≥ 800 µM | ≥ 800 µM | ≥ 800 µM | ≥ 800 µM | ≥ 800 µM | ≥ 800 µM | – | – | – | – | 37.9 ± 10.4 µM | – |
| CCCCCCCCCC[N+]12CCC(CC1)C(=NO)C2.[Br-] [Compound 9, 1-decyl-3-hydroxyiminoquinuclidinium bromide] | 23.8 ± 0.8 µM | 4.6 | – | ≥ 800 µM | ≥ 800 µM | ≥ 800 µM | ≥ 800 µM | ≥ 800 µM | ≥ 800 µM | – | – | – | – | 5.2 ± 1.1 µM | – |
| ON=C1C[N+]2(CCCCCCCC[N+]34CCC(CC3)C(=NO)C4)CCC1CC2 [Compound 13, 1,1’-(octano)bis(3-hydroxyiminoquinuclidinium bromide)] | 1.8 ± 0.07 µM | 0.5 | 3.4 ± 0.2 µM | ≥ 800 µM | ≥ 800 µM | ≥ 800 µM | ≥ 800 µM | ≥ 800 µM | ≥ 800 µM | – | – | – | – | – | – |
| ON=C1C[N+]2(CCCCCCCCCC[N+]34CCC(CC3)C(=NO)C4)CCC1CC2 [Compound 14, 1,1’-(decano)bis(3-hydroxyiminoquinuclidinium bromide)] | 0.26 ± 0.02 µM | 0.2 | 1.2 ± 0.06 µM | ≥ 800 µM | ≥ 800 µM | ≥ 800 µM | ≥ 800 µM | ≥ 800 µM | ≥ 800 µM | – | – | – | – | – | around 60 |
